# Results taken from PubChem BioAssay (NCI).
#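 The compound was tested at five concentrations on cells cultured in 96-well plates, with a 48-hour exposure period. GI50 = concentration required for 50% inhibition of growth. TGI: total growth inhibition.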
# Experiments:
# Test in all cases: NCI anticancer screen, dose series, 48 h
# HCT-116 colon = test system: HCT-116 colon
# SNB-19 CNS = test system: SNB-19 CNS
# SN12C renal = test system: SN12C renal
# SK-OV-3 ovarian = test system: SK-OV-3 ovarian
# PC-3 prostate = test system: PC-3 prostate
# A549 NSCLC = test system: A549 NSCLC
# HCC-2998 colon = test system: HCC-2998 colon
# CCRF-CEM leukemia = test system: CCRF-CEM leukemia
# HCT-15 colon = test system: HCT-15 colon
# RPMI-8226 leukemia = test system: RPMI-8226 leukemia
# NCI-H460 lung = test system: NCI-H460 lung
# SF-539 CNS = test system: SF-539 CNS
# UACC-62 melanoma = test system: UACC-62 melanoma
# K-562 leukemia = test system: K-562 leukemia
# DU-145 prostate = test system: DU-145 prostate
# HOP-62 NSCLC = test system: HOP-62 NSCLC
# U251 CNS = test system: U251 CNS
# COLO 205 colon = test system: COLO 205 colon
# RXF 393 renal = test system: RXF 393 renal
# T-47D breast = test system: T-47D breast
# OVCAR-8 ovarian = test system: OVCAR-8 ovarian
# NCI-H226 lung = test system: NCI-H226 lung
# SW-620 colon = test system: SW-620 colon
# SNB-75 CNS = test system: SNB-75 CNS
# OVCAR-3 ovarian = test system: OVCAR-3 ovarian
# NCI-H23 lung = test system: NCI-H23 lung
# TK-10 renal = test system: TK-10 renal
# SR leukemia = test system: SR leukemia
# 786-0 renal = test system: 786-0 renal
# MALME-3M melanoma = test system: MALME-3M melanoma
# UACC-257 melanoma = test system: UACC-257 melanoma
# SK-MEL-28 melanoma = test system: SK-MEL-28 melanoma
# NCI-H522 lung = test system: NCI-H522 lung
# MOLT-4 leukemia = test system: MOLT-4 leukemia
# MDA-MB-231 breast = test system: MDA-MB-231 breast
# SF-295 CNS = test system: SF-295 CNS
# NCI/ADR-RES ovarian = test system: NCI/ADR-RES ovarian
# OVCAR-5 ovarian = test system: OVCAR-5 ovarian
# MCF7 breast = test system: MCF7 breast
# KM12 colon = test system: KM12 colon
# HOP-92 NSCLC = test system: HOP-92 NSCLC
# A498 renal = test system: A498 renal
# OVCAR-4 ovarian = test system: OVCAR-4 ovarian
# EKVX NSCLC = test system: EKVX NSCLC
# SF-268 CNS = test system: SF-268 CNS
# IGROV1 ovarian = test system: IGROV1 ovarian
# BT-549 breast = test system: BT-549 breast
# CAKI-1 renal = test system: CAKI-1 renal
# ACHN renal = test system: ACHN renal
# MDA-MB-435 = test system: MDA-MB-435
# LOX IMVI melanoma = test system: LOX IMVI melanoma
# HL-60(TB) leukemia = test system: HL-60(TB) leukemia
# M14 melanoma = test system: M14 melanoma
# SK-MEL-5 melanoma = test system: SK-MEL-5 melanoma
# UO-31 renal = test system: UO-31 renal
# SK-MEL-2 melanoma = test system: SK-MEL-2 melanoma
# HS 578T breast = test system: HS 578T breast
# HT29 colon = test system: HT29 colon
compound,measurement,setting,value
CC12CCCC(CC(=O)c3[nH]c4ccccc4c31)C2 (stereo unspecified),GI50,HCT-116 colon,429 nM
same,TGI,HCT-116 colon,18900 nM
same,GI50,SNB-19 CNS,1480 nM
same,TGI,SNB-19 CNS,> 100000 nM
same,GI50,SN12C renal,1910 nM
same,TGI,SN12C renal,20300 nM
same,GI50,SK-OV-3 ovarian,3530 nM
same,TGI,SK-OV-3 ovarian,> 76100 nM
same,GI50,PC-3 prostate,698 nM
same,TGI,PC-3 prostate,> 100000 nM
same,GI50,A549 NSCLC,2260 nM
same,TGI,A549 NSCLC,> 55900 nM
same,GI50,HCC-2998 colon,1790 nM
same,TGI,HCC-2998 colon,24600 nM
same,GI50,CCRF-CEM leukemia,459 nM
same,TGI,CCRF-CEM leukemia,> 100000 nM
same,GI50,HCT-15 colon,413 nM
same,TGI,HCT-15 colon,24400 nM
same,GI50,RPMI-8226 leukemia,656 nM
same,TGI,RPMI-8226 leukemia,12700 nM
same,GI50,NCI-H460 lung,1580 nM
same,TGI,NCI-H460 lung,19700 nM
same,GI50,SF-539 CNS,698 nM
same,TGI,SF-539 CNS,5750 nM
same,GI50,UACC-62 melanoma,491 nM
same,TGI,UACC-62 melanoma,> 60300 nM
same,GI50,K-562 leukemia,345 nM
same,TGI,K-562 leukemia,> 45200 nM
same,GI50,DU-145 prostate,2040 nM
same,TGI,DU-145 prostate,24300 nM
same,GI50,HOP-62 NSCLC,813 nM
same,TGI,HOP-62 NSCLC,50000 nM
same,GI50,U251 CNS,689 nM
same,TGI,U251 CNS,34700 nM
same,GI50,COLO 205 colon,1290 nM
same,TGI,COLO 205 colon,5300 nM
same,GI50,RXF 393 renal,629 nM
same,TGI,RXF 393 renal,4880 nM
same,GI50,T-47D breast,650 nM
same,TGI,T-47D breast,> 100000 nM
same,GI50,OVCAR-8 ovarian,2010 nM
same,TGI,OVCAR-8 ovarian,30700 nM
same,GI50,NCI-H226 lung,4230 nM
same,TGI,NCI-H226 lung,33300 nM
same,GI50,SW-620 colon,426 nM
same,TGI,SW-620 colon,> 100000 nM
same,GI50,SNB-75 CNS,204 nM
same,TGI,SNB-75 CNS,21700 nM
same,GI50,OVCAR-3 ovarian,384 nM
same,TGI,OVCAR-3 ovarian,2610 nM
same,GI50,NCI-H23 lung,2070 nM
same,TGI,NCI-H23 lung,> 63100 nM
same,GI50,TK-10 renal,14600 nM
same,TGI,TK-10 renal,> 90400 nM
same,GI50,SR leukemia,238 nM
same,TGI,SR leukemia,66100 nM
same,GI50,786-0 renal,879 nM
same,TGI,786-0 renal,18400 nM
same,GI50,MALME-3M melanoma,916 nM
same,TGI,MALME-3M melanoma,35600 nM
same,GI50,UACC-257 melanoma,15200 nM
same,TGI,UACC-257 melanoma,> 100000 nM
same,GI50,SK-MEL-28 melanoma,2030 nM
same,TGI,SK-MEL-28 melanoma,> 100000 nM
same,GI50,NCI-H522 lung,451 nM
same,TGI,NCI-H522 lung,5290 nM
same,GI50,MOLT-4 leukemia,492 nM
same,TGI,MOLT-4 leukemia,40900 nM
same,GI50,MDA-MB-231 breast,3260 nM
same,TGI,MDA-MB-231 breast,43100 nM
same,GI50,SF-295 CNS,508 nM
same,TGI,SF-295 CNS,7370 nM
same,GI50,NCI/ADR-RES ovarian,439 nM
same,TGI,NCI/ADR-RES ovarian,6960 nM
same,GI50,OVCAR-5 ovarian,2820 nM
same,TGI,OVCAR-5 ovarian,> 100000 nM
same,GI50,MCF7 breast,400 nM
same,TGI,MCF7 breast,> 56700 nM
same,GI50,KM12 colon,641 nM
same,TGI,KM12 colon,> 54000 nM
same,GI50,HOP-92 NSCLC,2560 nM
same,TGI,HOP-92 NSCLC,36700 nM
same,GI50,A498 renal,483 nM
same,TGI,A498 renal,4000 nM
same,GI50,OVCAR-4 ovarian,9740 nM
same,TGI,OVCAR-4 ovarian,> 90800 nM
same,GI50,EKVX NSCLC,1550 nM
same,TGI,EKVX NSCLC,> 100000 nM
same,GI50,SF-268 CNS,1940 nM
same,TGI,SF-268 CNS,> 65200 nM
same,GI50,IGROV1 ovarian,793 nM
same,TGI,IGROV1 ovarian,> 100000 nM
same,GI50,BT-549 breast,624 nM
same,TGI,BT-549 breast,12800 nM
same,GI50,CAKI-1 renal,535 nM
same,TGI,CAKI-1 renal,> 78800 nM
same,GI50,ACHN renal,856 nM
same,TGI,ACHN renal,> 100000 nM
same,GI50,MDA-MB-435,255 nM
same,TGI,MDA-MB-435,949 nM
same,GI50,LOX IMVI melanoma,615 nM
same,TGI,LOX IMVI melanoma,20900 nM
same,GI50,HL-60(TB) leukemia,340 nM
same,TGI,HL-60(TB) leukemia,3940 nM
same,GI50,M14 melanoma,399 nM
same,TGI,M14 melanoma,17300 nM
same,GI50,SK-MEL-5 melanoma,669 nM
same,TGI,SK-MEL-5 melanoma,15000 nM
same,GI50,UO-31 renal,2400 nM
same,TGI,UO-31 renal,> 100000 nM
same,GI50,SK-MEL-2 melanoma,1910 nM
same,TGI,SK-MEL-2 melanoma,> 59100 nM
same,GI50,HS 578T breast,936 nM
same,TGI,HS 578T breast,37800 nM
same,GI50,HT29 colon,377 nM
same,TGI,HT29 colon,6270 nM
